pKd, pKi: −log10 of the molar value.
Key:
[1] = molecular target: T1, Sodium-dependent dopamine transporter (Homo sapiens, UniProt Q01959); assay: (§1) Selectivity interaction (Eurofins-Panlabs radioligand binding assay) EUB0000716a SLC6A3
[2] = molecular target: T1, Sodium-dependent dopamine transporter; assay: as §1; remark: listed apart in the source
[3] = molecular target: T2, Serine/threonine-protein kinase LATS1 (Homo sapiens) (UniProt O95835); assay: Selectivity interaction (KinomeScan (DiscoverX)) EUB0000716a LATS1; settings: at 100 nM
T2 sequence (whole entry): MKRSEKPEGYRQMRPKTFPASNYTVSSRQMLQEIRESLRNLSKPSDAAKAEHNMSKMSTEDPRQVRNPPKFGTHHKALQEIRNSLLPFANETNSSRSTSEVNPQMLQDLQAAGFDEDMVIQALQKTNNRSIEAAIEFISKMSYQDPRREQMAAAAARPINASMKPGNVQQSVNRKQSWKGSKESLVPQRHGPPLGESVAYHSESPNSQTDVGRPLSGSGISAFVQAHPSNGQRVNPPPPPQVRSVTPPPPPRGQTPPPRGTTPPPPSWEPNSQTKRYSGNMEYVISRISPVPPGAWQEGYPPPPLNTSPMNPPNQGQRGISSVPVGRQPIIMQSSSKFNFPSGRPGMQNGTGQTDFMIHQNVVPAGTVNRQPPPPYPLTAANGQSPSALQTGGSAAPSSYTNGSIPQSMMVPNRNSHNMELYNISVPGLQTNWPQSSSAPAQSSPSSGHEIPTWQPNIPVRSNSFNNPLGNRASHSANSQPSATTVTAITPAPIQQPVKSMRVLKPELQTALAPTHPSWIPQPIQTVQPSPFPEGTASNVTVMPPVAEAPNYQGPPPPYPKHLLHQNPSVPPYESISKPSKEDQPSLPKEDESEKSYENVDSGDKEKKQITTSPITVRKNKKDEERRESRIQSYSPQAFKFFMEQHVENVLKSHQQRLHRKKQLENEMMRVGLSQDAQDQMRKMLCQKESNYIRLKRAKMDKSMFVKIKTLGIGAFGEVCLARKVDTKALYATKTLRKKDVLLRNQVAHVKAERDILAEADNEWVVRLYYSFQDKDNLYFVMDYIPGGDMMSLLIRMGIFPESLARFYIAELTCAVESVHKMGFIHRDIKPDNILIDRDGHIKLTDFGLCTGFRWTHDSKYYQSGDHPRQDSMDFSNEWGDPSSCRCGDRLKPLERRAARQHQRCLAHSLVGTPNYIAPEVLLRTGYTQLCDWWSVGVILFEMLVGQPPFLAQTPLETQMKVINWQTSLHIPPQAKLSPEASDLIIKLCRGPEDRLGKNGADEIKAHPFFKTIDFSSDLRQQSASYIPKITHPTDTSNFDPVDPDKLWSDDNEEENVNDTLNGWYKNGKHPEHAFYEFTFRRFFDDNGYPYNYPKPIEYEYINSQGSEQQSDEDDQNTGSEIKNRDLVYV

[4] = molecular target: T3, Serine/threonine-protein kinase LATS2 (Homo sapiens) (UniProt Q9NRM7); assay: Selectivity interaction (KinomeScan (DiscoverX)) EUB0000716a LATS2; settings: at 100 nM
T3 sequence (whole entry): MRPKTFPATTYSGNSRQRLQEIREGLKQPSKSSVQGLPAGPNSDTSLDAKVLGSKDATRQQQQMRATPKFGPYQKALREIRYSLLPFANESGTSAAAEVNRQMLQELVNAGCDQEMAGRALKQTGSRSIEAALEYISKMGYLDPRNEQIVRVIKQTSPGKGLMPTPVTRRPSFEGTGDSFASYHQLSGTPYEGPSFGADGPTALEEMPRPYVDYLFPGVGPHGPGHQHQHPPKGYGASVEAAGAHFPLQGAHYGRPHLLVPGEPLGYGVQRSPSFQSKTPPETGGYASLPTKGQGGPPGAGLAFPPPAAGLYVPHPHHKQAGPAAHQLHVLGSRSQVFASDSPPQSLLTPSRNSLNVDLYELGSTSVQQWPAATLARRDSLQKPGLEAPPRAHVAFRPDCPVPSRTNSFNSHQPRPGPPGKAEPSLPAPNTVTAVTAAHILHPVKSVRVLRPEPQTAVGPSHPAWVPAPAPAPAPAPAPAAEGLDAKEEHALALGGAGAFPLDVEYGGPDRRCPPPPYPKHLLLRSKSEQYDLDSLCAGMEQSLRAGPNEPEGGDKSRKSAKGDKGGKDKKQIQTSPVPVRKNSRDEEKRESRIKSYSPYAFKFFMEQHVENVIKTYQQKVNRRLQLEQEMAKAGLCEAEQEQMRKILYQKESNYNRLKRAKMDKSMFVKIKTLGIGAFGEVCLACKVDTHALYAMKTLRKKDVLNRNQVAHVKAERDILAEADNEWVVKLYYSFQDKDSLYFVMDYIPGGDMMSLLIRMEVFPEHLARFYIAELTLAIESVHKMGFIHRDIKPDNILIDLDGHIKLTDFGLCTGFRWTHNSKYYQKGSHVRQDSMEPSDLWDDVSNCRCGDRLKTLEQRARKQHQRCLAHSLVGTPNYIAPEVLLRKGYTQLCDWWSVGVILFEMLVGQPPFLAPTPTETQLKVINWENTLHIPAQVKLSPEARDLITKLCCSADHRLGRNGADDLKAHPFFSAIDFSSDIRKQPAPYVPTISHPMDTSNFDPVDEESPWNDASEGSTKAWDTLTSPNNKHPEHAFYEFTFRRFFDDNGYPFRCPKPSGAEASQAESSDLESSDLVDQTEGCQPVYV

[5] = molecular target: cAMP-dependent protein kinase catalytic subunit alpha (Homo sapiens, UniProt P17612); assay: Selectivity interaction (KinomeScan (DiscoverX)) EUB0000716a PRKACA; settings: at 100 nM
[6] = molecular target: cAMP-dependent protein kinase catalytic subunit beta (Homo sapiens) (UniProt P22694); assay: Selectivity interaction (KinomeScan (DiscoverX)) EUB0000716a PRKACB; settings: at 100 nM
[7] = molecular target: cGMP-dependent protein kinase 1 (Homo sapiens) (UniProt Q13976); assay: Selectivity interaction (KinomeScan (DiscoverX)) EUB0000716a PRKG1; settings: at 100 nM
Chain of cGMP-dependent protein kinase 1 (Homo sapiens) (Q13976 whole entry): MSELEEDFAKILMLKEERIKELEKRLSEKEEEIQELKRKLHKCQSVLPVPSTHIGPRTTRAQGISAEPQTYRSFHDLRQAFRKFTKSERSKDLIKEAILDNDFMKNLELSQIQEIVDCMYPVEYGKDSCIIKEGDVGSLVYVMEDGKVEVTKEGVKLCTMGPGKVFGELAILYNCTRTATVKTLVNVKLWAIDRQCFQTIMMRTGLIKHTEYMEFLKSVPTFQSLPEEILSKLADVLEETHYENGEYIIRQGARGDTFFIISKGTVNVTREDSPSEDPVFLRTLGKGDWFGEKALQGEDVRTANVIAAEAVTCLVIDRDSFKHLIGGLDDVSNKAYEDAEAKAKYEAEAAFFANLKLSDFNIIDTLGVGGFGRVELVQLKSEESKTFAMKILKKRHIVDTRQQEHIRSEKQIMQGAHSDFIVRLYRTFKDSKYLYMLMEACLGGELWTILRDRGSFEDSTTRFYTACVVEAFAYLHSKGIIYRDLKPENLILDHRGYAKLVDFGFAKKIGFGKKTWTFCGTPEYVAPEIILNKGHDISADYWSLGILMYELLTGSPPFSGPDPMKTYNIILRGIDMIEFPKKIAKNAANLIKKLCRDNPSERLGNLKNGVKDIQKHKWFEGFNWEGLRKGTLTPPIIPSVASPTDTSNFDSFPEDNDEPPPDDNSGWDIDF

[8] = molecular target: MAP kinase-interacting serine/threonine-protein kinase 2 (Homo sapiens, UniProt Q9HBH9); assay: Selectivity interaction (KinomeScan (DiscoverX, competition-binding assay)) EUB0000637a MKNK2
Chain of MAP kinase-interacting serine/threonine-protein kinase 2 (Q9HBH9 whole entry): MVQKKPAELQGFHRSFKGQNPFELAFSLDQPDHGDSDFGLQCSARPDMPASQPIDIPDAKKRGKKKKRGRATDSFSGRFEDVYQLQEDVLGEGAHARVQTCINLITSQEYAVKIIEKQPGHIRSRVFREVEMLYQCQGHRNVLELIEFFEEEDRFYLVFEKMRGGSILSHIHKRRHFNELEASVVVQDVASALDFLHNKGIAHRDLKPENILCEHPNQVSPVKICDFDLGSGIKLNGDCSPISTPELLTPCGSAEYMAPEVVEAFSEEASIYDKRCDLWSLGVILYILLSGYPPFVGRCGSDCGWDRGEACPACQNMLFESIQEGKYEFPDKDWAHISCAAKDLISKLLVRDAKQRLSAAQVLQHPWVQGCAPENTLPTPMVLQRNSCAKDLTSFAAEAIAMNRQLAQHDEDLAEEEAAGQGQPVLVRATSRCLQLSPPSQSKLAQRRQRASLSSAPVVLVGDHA

[9] = molecular target: Dual specificity protein kinase CLK1 (Homo sapiens, UniProt P49759); assay: Selectivity interaction (KinomeScan (DiscoverX, competition-binding assay)) EUB0000637a CLK1
Chain of Dual specificity protein kinase CLK1 (P49759 whole entry): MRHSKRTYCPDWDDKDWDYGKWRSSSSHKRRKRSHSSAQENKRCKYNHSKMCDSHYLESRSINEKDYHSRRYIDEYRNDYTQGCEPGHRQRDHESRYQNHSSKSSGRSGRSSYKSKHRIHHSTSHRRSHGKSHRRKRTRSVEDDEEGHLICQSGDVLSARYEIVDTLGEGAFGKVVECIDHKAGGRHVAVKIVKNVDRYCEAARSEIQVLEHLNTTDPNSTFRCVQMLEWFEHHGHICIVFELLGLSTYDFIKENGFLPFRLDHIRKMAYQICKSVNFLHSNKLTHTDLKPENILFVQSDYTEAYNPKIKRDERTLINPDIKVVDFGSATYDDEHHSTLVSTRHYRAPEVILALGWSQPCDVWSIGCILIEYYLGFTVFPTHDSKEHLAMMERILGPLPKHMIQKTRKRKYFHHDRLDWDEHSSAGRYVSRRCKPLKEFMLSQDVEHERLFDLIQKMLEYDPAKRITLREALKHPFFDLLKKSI

[10] = molecular target: Vascular endothelial growth factor receptor 1 (Homo sapiens, UniProt P17948); assay: Selectivity interaction (KinomeScan (DiscoverX, competition-binding assay)) EUB0000637a FLT1
Chain of Vascular endothelial growth factor receptor 1 (P17948 whole entry): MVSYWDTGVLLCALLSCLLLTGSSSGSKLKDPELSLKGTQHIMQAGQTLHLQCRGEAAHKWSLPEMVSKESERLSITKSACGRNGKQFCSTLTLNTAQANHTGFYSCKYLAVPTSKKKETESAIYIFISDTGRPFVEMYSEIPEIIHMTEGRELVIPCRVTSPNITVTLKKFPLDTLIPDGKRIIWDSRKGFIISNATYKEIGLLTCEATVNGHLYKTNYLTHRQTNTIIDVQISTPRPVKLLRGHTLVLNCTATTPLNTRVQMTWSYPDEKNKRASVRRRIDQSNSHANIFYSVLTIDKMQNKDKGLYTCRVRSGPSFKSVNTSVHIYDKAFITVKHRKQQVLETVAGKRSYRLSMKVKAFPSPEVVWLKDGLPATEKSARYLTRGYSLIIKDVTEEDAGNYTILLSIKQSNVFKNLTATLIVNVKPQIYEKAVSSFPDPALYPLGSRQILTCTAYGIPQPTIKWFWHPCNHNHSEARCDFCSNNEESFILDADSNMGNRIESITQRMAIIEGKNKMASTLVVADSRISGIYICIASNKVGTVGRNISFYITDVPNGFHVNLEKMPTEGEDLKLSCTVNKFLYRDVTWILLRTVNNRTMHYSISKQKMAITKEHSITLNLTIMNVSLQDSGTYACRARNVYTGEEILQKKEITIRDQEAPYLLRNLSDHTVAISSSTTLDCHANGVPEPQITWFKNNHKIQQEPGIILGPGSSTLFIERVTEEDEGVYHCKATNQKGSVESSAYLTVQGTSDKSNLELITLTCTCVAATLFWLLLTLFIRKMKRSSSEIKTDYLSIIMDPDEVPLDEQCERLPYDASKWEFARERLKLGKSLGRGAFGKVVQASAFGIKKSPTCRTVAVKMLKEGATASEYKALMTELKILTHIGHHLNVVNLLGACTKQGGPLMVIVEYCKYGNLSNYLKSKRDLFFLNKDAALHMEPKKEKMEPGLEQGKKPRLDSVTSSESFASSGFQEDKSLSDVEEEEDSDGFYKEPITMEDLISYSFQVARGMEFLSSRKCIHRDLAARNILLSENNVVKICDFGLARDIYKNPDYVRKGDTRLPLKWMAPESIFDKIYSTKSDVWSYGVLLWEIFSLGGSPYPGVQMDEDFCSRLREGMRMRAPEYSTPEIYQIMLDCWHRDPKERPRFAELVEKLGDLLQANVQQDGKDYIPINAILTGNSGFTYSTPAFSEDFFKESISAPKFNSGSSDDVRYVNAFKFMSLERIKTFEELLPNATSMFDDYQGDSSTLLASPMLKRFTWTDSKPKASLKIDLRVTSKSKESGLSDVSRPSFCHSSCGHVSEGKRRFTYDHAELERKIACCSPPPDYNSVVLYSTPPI

T1 sequence (Q01959 whole entry): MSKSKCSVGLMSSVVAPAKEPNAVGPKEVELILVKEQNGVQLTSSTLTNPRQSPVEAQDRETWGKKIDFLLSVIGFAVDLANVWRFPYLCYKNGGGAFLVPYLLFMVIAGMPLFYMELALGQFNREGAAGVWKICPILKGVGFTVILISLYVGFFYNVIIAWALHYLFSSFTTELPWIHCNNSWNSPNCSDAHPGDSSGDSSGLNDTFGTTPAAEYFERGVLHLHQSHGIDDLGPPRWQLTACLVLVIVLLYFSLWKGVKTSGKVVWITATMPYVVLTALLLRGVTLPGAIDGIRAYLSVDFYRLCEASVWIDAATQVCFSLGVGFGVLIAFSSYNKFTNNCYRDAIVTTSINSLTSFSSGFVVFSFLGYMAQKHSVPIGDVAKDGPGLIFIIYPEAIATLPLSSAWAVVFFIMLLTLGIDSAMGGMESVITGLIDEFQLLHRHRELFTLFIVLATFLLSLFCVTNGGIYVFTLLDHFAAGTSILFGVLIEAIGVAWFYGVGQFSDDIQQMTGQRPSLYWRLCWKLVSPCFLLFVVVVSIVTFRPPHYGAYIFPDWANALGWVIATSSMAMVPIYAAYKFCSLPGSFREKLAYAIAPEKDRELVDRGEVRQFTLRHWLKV

Structure (SMILES)	pKi [1]	pKi [2]	% of control [3] [%]	% of control [4] [%]	% of control [5] [%]	% of control [6] [%]	% of control [7] [%]	pKd [8]	pKd [9]	pKd [10]
Cc1c[nH]c2nccc(Oc3c(F)cc(Nc4cc(Cl)nc(N)n4)cc3F)c12 [BAY-549]	7.57	7.41	42	0.7	28	36	49			
NC(=O)c1ccc2nc(-c3ccc(C4(N)CCC4)cc3)c(-c3ccccc3)n2n1 [BAY-1125976]								6.48	6.51	6.68

Reference: ChEMBL document CHEMBL5212743, “Selectivity Literature for EUbOPEN Chemogenomics Library wave 3” (2023)
